According to publication PMC9862026, “In Vivo Toxicity, Redox-Modulating Capacity and Intestinal Permeability of Novel Aroylhydrazone Derivatives as Anti-Tuberculosis Agents” (Pharmaceutics, 2022):

Key:
small intestine of mice = assay: Pathomorphological evaluation of small intestine; assay type: in vivo; conditions: 50 mg/kg oral, 14 days
Experimental: (§1) Tissues from the liver, kidney and small intestine of the mice from all groups were collected post-mortem and fixed in 10% buffered formalin for 48 h. fixed tissues were processed according to the classical paraffin method. The cutting of the paraffin blocks was performed using a paraffin rotary microtome Leica RM 2255 at a slice thickness of 5 µm. The sections were stained with hematoxylin and eosin (H&E). Histological changes were examined and imaged with a Leica DM2500 light microscope equipped with a Leica MC120HD digital camera and also with Euromex BioBlue (Belgium) digital camera

male Jcl:ICR mice [1] = assay: Sub-acute toxicity, 14 days oral: complete blood count; assay type: in vivo; conditions: 50 mg/kg oral
Experimental: (§2) The sub-acute toxicity effects were assessed after repeated (14 days) oral administration to male mice. […] The experiments were performed with male Jcl: ICR mice at the same age of 6 weeks and weighing approximately 30–35 g, in which the substances were administered daily for 14 days orally with a gastric tube at approximately the same time of the day. The compounds were solubilized with Tween 80 (0.1%) in distilled water and administered orally in a volume of 0.1 mL per 10.0 g. Animals were observed daily for behavioral changes and signs of toxicity. All results were compared with the positive control isoniazid (INH).
(§3) Serum biochemical parameters were assessed as follows.

kidney of mice = assay: Pathomorphological evaluation of kidney; assay type: in vivo; conditions: 50 mg/kg oral, 14 days
Experimental: as §1

[2] = tested on: Glutathione peroxidase in the liver supernatant; assay: Glutathione peroxidase activity in liver supernatant; assay type: in vivo, mice; conditions: 50 mg/kg oral, 14 days
Experimental: as §3
The Glutathione Peroxidase Cellular Activity Assay Kit (Cat. No. CGP1) and Glutathione Reductase Assay Kit (Cat. No. GRSA) were used to measure the activities of glutathione-related enzymes.

liver of mice = assay: Pathomorphological evaluation of liver; assay type: in vivo; conditions: 50 mg/kg oral, 14 days
Experimental: as §1

[3] = tested on: SOD in the liver supernatant; assay: SOD activity in liver supernatant; assay type: in vivo, mice; conditions: 50 mg/kg oral, 14 days
Experimental: as §3
SOD activity was measured by the method of Beauchamp and Fridovich. Superoxide anion radicals generated photochemically for 7 min, reduced nitro blue tetrazolium (NBT) obtaining insoluble formazan in violet color. The reduction of NBT inhibition in the presence of different enzyme concentrations was read at 560 nm vs. control of reaction mixture. The amount of enzyme performing 50% inhibition of NBT reduction is accepted as a unit of activity (U/mg protein).

[4] = tested on: MDA in the liver homogenate; assay: Endogenous MDA (spontaneous lipid peroxidation) in liver homogenate; conditions: 50 mg/kg oral, 14 days; vs controls
Experimental: On day 14, the animals were anesthetized with ketamine/ xylazine and decapitated. […] Livers were taken to assess oxidative stress and antioxidant status in the study groups.
For the in vivo experiments (spontaneous lipid peroxidation) the postnuclear homogenates of the liver (mg protein/mL) in 0.15 M KCl—10 mM potassium phosphate buffer, pH 7.2, were heated for 15 min at 100 °C in the presence of 40% TCA + 5N HCl + 2% thiobarbituric acid (2:1:2 v/v) for color developing. After cooling and centrifugation, the absorbance was read at 532 nm against dd H2O as blank. The values were expressed in nmoles malondialdehyde (MDA) per mg protein, with a molar extinction coefficient of 1.56 × 10^−5 M^−1cm^−1.
male Jcl:ICR mice [5] = assay: Sub-acute toxicity, 14 days oral: serum biochemical parameters; assay type: in vivo; conditions: 50 mg/kg oral
Experimental: as §2, §3

[6] = tested on: GSH in the liver homogenate; assay: Total glutathione in liver homogenate; assay type: in vivo, mice; conditions: 50 mg/kg oral, 14 days
Experimental: as §3
According to Rahman et al. total glutathione (tGSH) concentration was determined. In the reaction between GSH and 5,5′-dithiobis-2-nitrobenzoic acid (DTNB), the rate of formation of colored substance, 5′-thio-2-nitrobenzoic acid (TNB), is proportional to the concentration of tGSH in the sample. The maximal absorption of colored TNB is at 412 nm. The concentration of tGSH was calculated using oxidized glutathione as a reference standard and was expressed as ng/mg protein.

[7] = GIT PAMPA intestinal permeability (Double-Sink protocol); assay type: in vitro ADME
Experimental: The intestinal permeability of isoniazid and the newly synthesized derivatives was measured by PAMPA Permeability Analyzer (pION Inc., Billerica, MA, USA) following the Double-Sink™ Protocol. PAMPA assay kits were purchased from pION Inc. According to the protocol, the donor compartment of the “sandwich” is loaded with compound solutions adjusted to three different pH values of 5.0, 6.2, and 7.4. The acceptor wells are filled with an ASB of fixed pH 7.4, containing chemical scavengers that simulate the effect of serum proteins. In the central circulation, pH 7.4 is constantly maintained, and the blood flow, as well as the serum proteins, support the one-directional process of absorption. Reference spectra (ketoprofen, antipyrine, and ranitidine) were used to assess the transfer of compounds from the donor to the acceptor phase. The permeation ability was estimated based on permeability coefficient values Pe (10^−6 cm/s), presented in logarithmic terms (−logPe). Values of −logPe < 5 were accepted as indicative of highly permeable compounds. When −logPe acquired values between 5 and 6, compounds were considered as medium permeable, and if −logPe > 6–as low permeable. Experiments were performed in triplicate and permeation coefficients Pe (−logPe values, respectively) are calculated using PAMPA Explorer Command Software (Version 3.8).

ABTS•+ assay = conditions: 15 min at 37 °C
Experimental: ABTS (2,2′-azino-bis (3-ethylbenzthiazoline-6-sulphonic acid) (7.0 mM) was mixed with potassium persulfate (2.45 mM) to obtain the cationic radical (ABTS•+) The solution was diluted in methanol (2 mL ABTS•+ + 58 mL methanol). The absorption at 743 nm of the resulting working solution was 1.1 ± 0.02 AU. Then, 1.425 mL of ABTS•+ working solution was added to 75 μL of the test drugs, and the absorption at 743 nm was measured after 15 min of incubation at 37 °C against methanol. A blank containing 75 μL of water instead of the test extract also was measured against methanol.
(§4) All data are presented as IC50, which gave 50% inhibition of the activities and compared against the activity of Trolox—a common antioxidant, at the same concentrations.

DPPH assay = conditions: 0.1 mM DPPH in methanol, 30 min
Experimental: DPPH (2,2′-diphenyl-1-picrylhydrazyl radical) assay analysis of pure compounds was conducted by the method described by Brand-Williams et al.. First, 500 μL of the test solutions were added to 500 μL of a freshly prepared solution of 0.1 mM DPPH in methanol and incubated in the dark for 30 min. Then the absorbance at 517 nm (A517) was measured against a mixture of DPPH solution and methanol (1:1) as a control.
as §4

[8] = tested on: Fe^2+-asc.—induced lipid peroxidation in brain homogenate; assay: Fe-induced lipid peroxidation inhibition assay in vitro (TBARS); assay type: biochemical; conditions: model system of brain homogenate, 10 mM FeCl3 and 10 mM ascorbic acid
Experimental: Malondialdehyde as a marker of lipid peroxidation was determined by the formation of endogenous lipid peroxidation products, reacting with 2-thiobarbituric acid (TBARS), and detected spectrophotometrically (λmax = 532 nm) adapted by Mileva et al.. The method is based on the reaction of thiobarbituric acid (TBA) with the final products of lipids oxidation and formation of malondialdehyde (MDA). […] After that to the samples was added 0.6 mL a mixture of trichloroacetic acid (TCA)—TCA:HCl:TBA in 2:1:2 ratio and boiled in a water bath. After cooling and centrifugation at 3000 nrp the obtained color complex was read spectrophotometrically at A532 nm against the appropriate blank. The results were expressed in percentage inhibition of lipid peroxidation (received MDA per mg protein content from the control).
as §4

NNC(=O)c1ccncc1 [INH, isoniazid, reference compound]
Pathomorphological findings in the small intestine (small intestine of mice): there were no defects in the epithelium, reaching and exceeding the muscular layer of the epithelium | villous dullness score (small intestine of mice): 1 | HCT (male Jcl:ICR mice [1]): 33.3 ± 2.1 % | Hgb (male Jcl:ICR mice [1]): 112 ± 2.2 g/L | PLT (male Jcl:ICR mice [1]): 789 ± 183 10^9/L | RBC (male Jcl:ICR mice [1]): 5.35 ± 0.2 × 10^12/L | WBC (male Jcl:ICR mice [1]): 9.9 ± 0.54 × 10^9/L | increase of leukocytes compared to controls (male Jcl:ICR mice [1]): 70% | reduction in hematocrit compared to the control group (male Jcl:ICR mice [1]): 20% | reduction in the level of erythrocytes compared to the control group (male Jcl:ICR mice [1]): 28% | reduction in the level of hemoglobin compared to the control group (male Jcl:ICR mice [1]): 21% | Pathomorphological findings in the kidney (kidney of mice): the curved parts of the distal tubules have a lower upholstered epithelium, wide luminal segments, and preserved histological structure | increase of the activity of GPx compared to controls [2]: 35% | Lobular inflammatory process and hepatocyte loss (liver of mice): not reported | signs related to initiated fibroblastic process (organ collagenization and fibrosis) (liver of mice): No signs | increase of the activity of SOD in liver [3]: 25% | increase of the level of MDA in liver homogenate [4]: more than 35% | decrease of albumin compared to controls (male Jcl:ICR mice [5]): 23% | decrease of total protein compared to controls (male Jcl:ICR mice [5]): 26% | direct bilirubin higher than controls (male Jcl:ICR mice [5]): 48% | increase of ALAT compared to control animals (male Jcl:ICR mice [5]): 67% | increase of ASAT compared to control animals (male Jcl:ICR mice [5]): 52% | increase of creatinine compared to controls (male Jcl:ICR mice [5]): 29% | increase of urea compared to controls (male Jcl:ICR mice [5]): 49% | total bilirubin higher than controls (male Jcl:ICR mice [5]): 40% | ALAT (male Jcl:ICR mice [5]; serum): 96.6 ± 3.1 U/L | ALB (male Jcl:ICR mice [5]; serum): 21.6 ± 1.7 g/L | ASAT (male Jcl:ICR mice [5]; serum): 126 ± 5.2 U/L | CREAT (male Jcl:ICR mice [5]; serum): 126.6 ± 8.2 µmol/L | D-Bil (male Jcl:ICR mice [5]; serum): 6.5 ± 0.44 µmol/L | GLU (male Jcl:ICR mice [5]; serum): 6.4 ± 0.47 mmol/L | T-Bil (male Jcl:ICR mice [5]; serum): 12.0 ± 0.38 µmol/L | TP (male Jcl:ICR mice [5]; serum): 43.2 ± 3.1 g/L | UA (male Jcl:ICR mice [5]; serum): 196 ± 20.7 µmol/L | UREA (male Jcl:ICR mice [5]; serum): 13.6 ± 0.36 mmol/L | level of total GSH in liver homogenate [6]: decreased the level of total GSH | glutathione deficiency ([6]; vs control levels): about 30% | −logPe, GIT PAMPA ([7]; at the given experimental conditions (all tested pH), impermeable): > 6 | −logPe, GIT PAMPA ([7]; donor pH = 5.0, acceptor pH 7.4, Pe in 10^−6 cm/s): 6.226 | −logPe, GIT PAMPA ([7]; donor pH = 6.2, acceptor pH 7.4, Pe in 10^−6 cm/s): 6.591 | −logPe, GIT PAMPA ([7]; donor pH = 7.4, acceptor pH 7.4, Pe in 10^−6 cm/s): 6.594

Cc1c(C)c2c(c(C)c1O)CCC(C)(C(=O)O)O2 (centres unmarked) [Trolox, 6-hydroxy-2,5,7,8-tetramethylchroman-2-carboxylic acid, reference compound]
ABTS Scavenging, IC50 (ABTS•+ assay): 24.8 mg/mL | DPPH Scavenging, IC50 (DPPH assay): 8.92 mg/mL | Fe^2+-asc.—Induced LP in Liver, IC50 [8]: 18.2 mg/mL
